Square brackets hold non-standard residues; d marks the D form. Peptide text beside a SMILES is read from it. * marks the point of attachment. Phe(3-CF3) = N[C@@H](Cc1cccc(C(F)(F)F)c1)C(=O)O; Phe(4-Br) = N[C@@H](Cc1ccc(Br)cc1)C(=O)O; Phe(4-Cl) = N[C@@H](Cc1ccc(Cl)cc1)C(=O)O; Phe(4-Me) = Cc1ccc(C[C@H](N)C(=O)O)cc1; Butyryl = CCCC(=O)*
Assays:
Melanocortin receptor 4 [1] = molecular target: T1, Melanocortin receptor 4 (Homo sapiens, UniProt P32245); assay: Inhibitory concentration of compound was determined against hMC4R through displacement of NDP-MSH radioligand using HEK293 cells; format: cell-based
T1 sequence (P32245 whole entry): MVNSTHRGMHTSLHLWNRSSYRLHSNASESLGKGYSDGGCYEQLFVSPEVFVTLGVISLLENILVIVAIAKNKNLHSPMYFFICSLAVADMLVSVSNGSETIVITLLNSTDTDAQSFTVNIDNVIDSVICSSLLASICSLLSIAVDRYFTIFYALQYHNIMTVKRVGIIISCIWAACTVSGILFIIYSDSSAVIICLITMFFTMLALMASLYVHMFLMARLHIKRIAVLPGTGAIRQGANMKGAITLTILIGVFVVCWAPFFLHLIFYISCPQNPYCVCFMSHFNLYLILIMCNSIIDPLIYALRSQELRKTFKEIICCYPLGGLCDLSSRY

Melanocortin receptor 4 [2] = molecular target: T1, Melanocortin receptor 4; assay: (§1) Effective concentration against hMC4R using HEK293 cells was determined by measuring cAMP accumulation at 50 uM; format: functional, cell-based
[3] = molecular target: T2, Melanocyte-stimulating hormone receptor (Homo sapiens, UniProt Q01726); assay: Inhibitory concentration of compound was determined against hMC1R through displacement of NDP-MSH radioligand using HEK293 cells; format: cell-based
T2 sequence (Q01726 whole entry): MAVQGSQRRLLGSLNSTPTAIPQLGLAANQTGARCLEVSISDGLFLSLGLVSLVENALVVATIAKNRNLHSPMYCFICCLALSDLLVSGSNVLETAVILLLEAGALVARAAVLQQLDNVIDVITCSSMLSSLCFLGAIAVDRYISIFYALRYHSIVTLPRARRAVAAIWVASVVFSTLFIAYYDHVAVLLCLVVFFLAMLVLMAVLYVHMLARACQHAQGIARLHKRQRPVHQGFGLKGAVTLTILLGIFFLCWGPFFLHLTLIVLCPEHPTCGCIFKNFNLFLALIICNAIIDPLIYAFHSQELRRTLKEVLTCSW

[4] = molecular target: T2, Melanocyte-stimulating hormone receptor; assay: Effective concentration against hMC1R using HEK293 cells was determined by measuring the cAMP accumulation; format: functional, cell-based
Melanocortin receptor 4 [5] = molecular target: T1, Melanocortin receptor 4; assay: (§2) Effective concentration against hMC4R using HEK293 cells was determined by measuring cAMP accumulation; format: functional, cell-based
Melanocortin receptor 4 [6] = molecular target: T1, Melanocortin receptor 4; assay: as §1; format: functional, cell-based; remark: listed apart in the source
Melanocortin receptor 4 [7] = molecular target: T1, Melanocortin receptor 4; assay: as §2; format: functional, cell-based; remark: listed apart in the source

| Compound | IC50 (Melanocortin receptor 4 [1]) [µM] | inhibition (Melanocortin receptor 4 [2]) [%] | IC50 [3] [µM] | EC50 [4] [µM] | EC50 (Melanocortin receptor 4 [5]) [µM] | EC50 (Melanocortin receptor 4 [6]) [µM] | ED50 (Melanocortin receptor 4 [7]) [µM] |
| --- | --- | --- | --- | --- | --- | --- | --- |
| CCCC(=O)N[C@@H](Cc1c[nH]cn1)C(=O)N[C@H](Cc1ccc2ccccc2c1)C(=O)N[C@@H](CCCN=C(N)N)C(=O)N[C@@H](Cc1c[nH]c2ccccc12)C(=O)NCC(N)=O | 0.03 | 0 | 5 | 0.048 | – | – | – |
| CCCC(=O)N[C@@H](Cc1c[nH]cn1)C(=O)N[C@H](Cc1ccc(Cl)c(Cl)c1)C(=O)N[C@@H](CCCN=C(N)N)C(=O)N[C@@H](Cc1c[nH]c2ccccc12)C(=O)NCC(N)=O | 0.004 | 0 | 0.25 | 0.01 | – | – | – |
| CCCC(=O)N[C@@H](Cc1c[nH]cn1)C(=O)N[C@H](Cc1cccc2ccccc12)C(=O)N[C@@H](CCCN=C(N)N)C(=O)N[C@@H](Cc1c[nH]c2ccccc12)C(=O)NCC(N)=O | 0.35 | – | 4 | 0.03 | 0.065 | – | – |
| CCCC(=O)N[C@@H](Cc1cnc[nH]1)C(=O)N[C@H](Cc1ccccc1)C(=O)N[C@@H](CCCNC(=N)N)C(=O)N[C@@H](Cc1csc2ccccc12)C(=O)NCC(N)=O | 1 | – | 2.88 | 0.274 | 0.1 | – | – |
| CCCC(=O)N[C@@H](Cc1c[nH]cn1)C(=O)N[C@@H](Cc1ccc(OC)cc1)C(=O)N[C@@H](CCCN=C(N)N)C(=O)N[C@@H](Cc1c[nH]c2ccccc12)C(=O)NCC(N)=O (Butyryl-HY(Me)RWG-NH2) | 0.12 | – | 0.07 | 0.0004 | 0.06 | – | – |
| CCCC(=O)N[C@@H](Cc1c[nH]cn1)C(=O)N[C@@H](Cc1ccc(Br)cc1)C(=O)N[C@@H](CCCN=C(N)N)C(=O)N[C@@H](Cc1c[nH]c2ccccc12)C(=O)NCC(N)=O (Butyryl-H[Phe(4-Br)]RWG-NH2) | 0.022 | – | 0.3 | 0.054 | 0.013 | – | – |
| CCCC(=O)N[C@@H](Cc1c[nH]cn1)C(=O)NC(Cc1ccccc1)C(=O)N[C@@H](CCCN=C(N)N)C(=O)NC(Cc1c[nH]c2ccccc12)C(=O)NCC(N)=O (single isomer, unassigned) | – | – | – | 0.11 | – | 0.11 | – |
| CCCC(=O)N[C@@H](Cc1c[nH]cn1)C(=O)NC(Cc1ccccc1)C(=O)N[C@@H](CCCN=C(N)N)C(=O)N[C@@H](Cc1ccc(Cl)c(Cl)c1)C(=O)NCC(N)=O (single isomer, unassigned) | – | – | – | 0.001 | – | – | 0.194 |
| CCCC(=O)N[C@@H](Cc1c[nH]cn1)C(=O)NC(Cc1ccc(OCC)cc1)C(=O)N[C@@H](CCCN=C(N)N)C(=O)N[C@@H](Cc1c[nH]c2ccccc12)C(=O)NCC(N)=O (single isomer, unassigned) | 0.1 | – | 0.016 | 0.0001 | 0.016 | – | – |
| CCCC(=O)N[C@@H](Cc1c[nH]cn1)C(=O)NC(Cc1cccs1)C(=O)N[C@@H](CCCN=C(N)N)C(=O)N[C@@H](Cc1c[nH]c2ccccc12)C(=O)NCC(N)=O (single isomer, unassigned) | – | – | – | 0.004 | – | 0.008 | – |
| CCCC(=O)N[C@@H](Cc1c[nH]cn1)C(=O)NC(Cc1ccccc1)C(=O)N[C@@H](CCCN=C(N)N)C(=O)N[C@@H](Cc1ccc2ccccc2c1)C(=O)NCC(N)=O (single isomer, unassigned) | 0.05 | – | 0.6 | 0.014 | 0.025 | – | – |
| CCCC(=O)N[C@@H](Cc1c[nH]cn1)C(=O)NC(Cc1ccccc1)C(=O)N[C@@H](CCCN=C(N)N)C(=O)N[C@@H](Cc1cccc2ccccc12)C(=O)NCC(N)=O (single isomer, unassigned) | 0.6 | – | 1.2 | 0.15 | 0.14 | – | – |

Now from value to compound:

| IC50 (Melanocortin receptor 4 [1]) [µM] | inhibition (Melanocortin receptor 4 [2]) [%] | IC50 [3] [µM] | EC50 [4] [µM] | EC50 (Melanocortin receptor 4 [5]) [µM] | EC50 (Melanocortin receptor 4 [6]) [µM] | ED50 (Melanocortin receptor 4 [7]) [µM] | Compound |
| --- | --- | --- | --- | --- | --- | --- | --- |
| 0.15 | – | 0.575 | 0.01 | 0.02 | – | – | CCCC(=O)N[C@@H](Cc1cnc[nH]1)C(=O)N[C@@H](Cc1ccccc1)C(=O)N[C@@H](CCCNC(=N)N)C(=O)N[C@@H](Cc1c[nH]c2ccccc12)C(=O)NCC(N)=O |
| – | – | – | 0.18 | 1.15 | – | – | CCCC(=O)N[C@@H](Cc1cnc[nH]1)C(=O)N[C@@H](Cc1ccc(O)cc1)C(=O)N[C@@H](CCCNC(=N)N)C(=O)N[C@@H](Cc1c[nH]c2ccccc12)C(=O)NCC(N)=O (Butyryl-HYRWG-NH2) |
| 0.3 | – | 9.6 | 0.611 | 0.045 | – | – | CCCC(=O)N[C@@H](Cc1cnc[nH]1)C(=O)N[C@@H](Cc1cccc(C(F)(F)F)c1)C(=O)N[C@@H](CCCNC(=N)N)C(=O)N[C@@H](Cc1c[nH]c2ccccc12)C(=O)NCC(N)=O (Butyryl-H[Phe(3-CF3)]RWG-NH2) |
| 0.08 | – | 0.3 | 0.02 | 0.02 | – | – | CCCC(=O)N[C@@H](Cc1cnc[nH]1)C(=O)N[C@@H](Cc1ccc(Cl)cc1)C(=O)N[C@@H](CCCNC(=N)N)C(=O)N[C@@H](Cc1c[nH]c2ccccc12)C(=O)NCC(N)=O (Butyryl-H[Phe(4-Cl)]RWG-NH2) |
| – | – | – | 0.055 | 0.077 | – | – | CCCC(=O)N[C@@H](Cc1cnc[nH]1)C(=O)N[C@@H](Cc1ccc(C)cc1)C(=O)N[C@@H](CCCNC(=N)N)C(=O)N[C@@H](Cc1c[nH]c2ccccc12)C(=O)NCC(N)=O (Butyryl-H[Phe(4-Me)]RWG-NH2) |
